Four compounds from ChEMBL document CHEMBL4196018, “New antitumor anthra[2,3-b]furan-3-carboxamides: Synthesis and structure-activity relationship” (Eur J Med Chem, 2018) can be followed below.

Active and inactive are the calls of the source. The rule behind the calls is not given here.

The nature of data set [1]: Substrate activity at P-gp in human K562/4 cells assessed as test compound accumulation at 1 uM after 1 to 24 hrs by flow cytometry. The class given is ADME, cell-based. (In flow cytometry, cells or beads pass a laser one at a time.)
Data set [2] in a line: Antiproliferative activity against human K562/4 cells after 72 hrs by MTT assay. The class given is functional, cell-based. Conditions: K562/4, 72 h. (Tetrazolium assays rely on reduction of a dye to a coloured formazan, in cell work by metabolically active cells.)
Data set [3] is described as follows: Drug uptake in human K562 cells at 2 uM after 1 to 24 hrs by flow cytometry. The class given is ADME, cell-based. Conditions: k562, 2 µM.
The nature of data set [4]: Substrate activity at P-gp in human K562/4 cells assessed as test compound accumulation at 2 uM after 1 to 24 hrs in presence of P-gp inhibitor tariquidar by flow cytometry. The class given is ADME, cell-based.
Data set [5] in a line: Substrate activity at P-gp in human K562/4 cells assessed as test compound accumulation at 2 uM after 1 to 24 hrs by flow cytometry. The class given is ADME, cell-based.
Data set [6] is filed under the species Homo sapiens. Kind of data set: Cell cycle arrest in human K562/4 cells at 1 uM up to 48 hrs by propidium iodide staining based flow cytometry. The class given is functional.
For data set [7], the system named is K562. Kind of data set: Cell cycle arrest in human K562 cells at 1 uM up to 48 hrs by propidium iodide staining based flow cytometry. The class given is functional.
For the next data set, the system named is L1210. Kind of data set: Antiproliferative activity against mouse L1210 cells after 48 hrs by MTT assay. It counts as functional, cell-based. Conditions: L1210, 48 h.
Data set [8] relates to HCT-116. Put plainly: Antiproliferative activity against human HCT116 cells after 72 hrs by MTT assay. It counts as functional, cell-based. Conditions: HCT-116, 72 h.
The nature of data set [9]: Resistance index, ratio of IC50 for human K562/4 cells to IC50 for human K562 cells. The class given is functional.
The next data set deals with HeLa. Put plainly: Antiproliferative activity against human HeLa cells after 72 hrs by MTT assay. The class given is functional, cell-based.
Data set [10] has as its system HCT-116. Kind of data set: Antiproliferative activity against p53 knockout human HCT116 cells after 72 hrs by MTT assay. It counts as functional, cell-based. Conditions: HCT-116, 72 h.
The subject of data set [11] is K562. Kind of data set: Antiproliferative activity against human K562 cells after 72 hrs by MTT assay. The class given is functional, cell-based. Conditions: K562, 72 h.
For another data set, the system named is CCRF-CEM. Put plainly: Antiproliferative activity against human CEM cells after 72 hrs by MTT assay. The class given is functional, cell-based.
Data set [12] addresses T1, DNA topoisomerase 1 (Homo sapiens) (UniProt P11387).
T1 sequence (whole entry): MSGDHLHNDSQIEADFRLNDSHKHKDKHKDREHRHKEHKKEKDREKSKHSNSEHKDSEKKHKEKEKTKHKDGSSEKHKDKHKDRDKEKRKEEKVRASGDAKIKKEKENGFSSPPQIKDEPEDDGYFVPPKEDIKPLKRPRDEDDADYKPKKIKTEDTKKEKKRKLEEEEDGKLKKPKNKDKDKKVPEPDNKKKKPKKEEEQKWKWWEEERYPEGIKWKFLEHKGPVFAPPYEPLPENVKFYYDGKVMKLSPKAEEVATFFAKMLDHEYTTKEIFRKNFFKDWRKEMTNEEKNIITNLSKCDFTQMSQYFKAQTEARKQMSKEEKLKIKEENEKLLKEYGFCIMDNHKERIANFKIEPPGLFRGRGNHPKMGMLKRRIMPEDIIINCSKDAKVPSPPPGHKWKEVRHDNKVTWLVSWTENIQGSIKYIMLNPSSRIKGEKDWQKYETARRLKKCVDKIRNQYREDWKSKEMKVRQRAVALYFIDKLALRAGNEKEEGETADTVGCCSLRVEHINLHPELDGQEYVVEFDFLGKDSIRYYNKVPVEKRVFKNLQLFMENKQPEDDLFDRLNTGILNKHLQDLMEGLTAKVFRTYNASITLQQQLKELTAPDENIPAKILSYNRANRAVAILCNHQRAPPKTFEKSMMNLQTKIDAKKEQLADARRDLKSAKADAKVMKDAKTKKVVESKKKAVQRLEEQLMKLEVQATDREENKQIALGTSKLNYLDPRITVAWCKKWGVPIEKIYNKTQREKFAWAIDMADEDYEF
Put plainly: Inhibition of human topoisomerase-1 at 1 to 30 uM using supercoiled pBR322 DNA as substrate after 30 mins by agarose gel electrophoresis method.

Data set [13] in a line: Resistance index, ratio of IC50 for p53 knockout human HCT116 cells to IC50 for human HCT116 cells. The class given is functional.
Data set [14] has as its system MKN-45. Put plainly: Induction of ROS generation in human MKN45 cells at 0.1 to 1 uM after 30 mins by H2DCFDA staining based flow cytometry. It counts as functional, cell-based.
The test system of data set [15] is TMK-1. Kind of data set: Induction of ROS generation in human TMK1 cells at 0.1 to 1 uM after 30 mins by H2DCFDA staining based flow cytometry. The class given is functional, cell-based.
In data set [16] the target is T1, DNA topoisomerase 1 (Homo sapiens). Put plainly: Inhibition of human topoisomerase-1 at 10 uM using supercoiled pBR322 DNA as substrate after 30 mins by agarose gel electrophoresis method.
A further data set has as its system Lymphocyte. Put plainly: Cytotoxicity against human lymphocytes assessed as reduction in cell viability at 25 uM after 72 hrs by MTT assay. The class given is cell-based.
For data set [17], the species on record is Homo sapiens. Kind of data set: Cell cycle arrest in human K562/4 cells assessed as accumulation at G2/M phase at 1 uM after 24 hrs by propidium iodide staining based flow cytometry. The class given is functional.
Data set [18] can be described thus: Cell cycle arrest in human K562/4 cells assessed as accumulation at sub-G1 phase at 1 uM up to 48 hrs by propidium iodide staining based flow cytometry relative to control. The class given is functional.
In data set [19] the test system is TMK-1. Kind of data set: Induction of apoptosis in human TMK1 cells at 1 uM after 24 hrs by Annexin V-FITC staining based flow cytometry relative to control. It counts as functional.
For data set [20], the system named is K562. Put plainly: Cell cycle arrest in human K562 cells assessed as accumulation at G2/M phase at 1 uM after 24 hrs by propidium iodide staining based flow cytometry. It counts as functional.
Data set [21] concerns TMK-1. Kind of data set: Induction of apoptosis in human TMK1 cells after 24 hrs by Annexin V-FITC staining based flow cytometry. The class given is functional, cell-based.
The test system of data set [22] is MKN-45. Kind of data set: Induction of apoptosis in human MKN45 cells at 1 uM after 24 hrs by Annexin V-FITC staining based flow cytometry relative to control. It counts as functional.
Data set [23] concerns MKN-45. Kind of data set: Induction of apoptosis in human MKN45 cells after 24 hrs by Annexin V-FITC staining based flow cytometry. It counts as functional, cell-based.
The test system of data set [24] is K562. Kind of data set: Cell cycle arrest in human K562 cells assessed as accumulation at sub-G1 phase at 1 uM up to 48 hrs by propidium iodide staining based flow cytometry relative to control. The class given is functional.

As to `COc1cc2c(cc1OC)CN(CCc1ccc(NC(=O)c3cc(OC)c(OC)cc3NC(=O)c3cnc4ccccc4c3)cc1)CC2`, the Activity result in [1] is recorded as “Not Active”.
The term IC50 denotes the midpoint of a concentration-inhibition curve. The compound `COc1cccc2c1C(=O)c1c(O)c3c(c(O)c1C2=O)C[C@@](O)(C(=O)CO)C[C@@H]3O[C@H]1C[C@H](N)[C@H](O)[C@H](C)O1` [DOXORUBICIN] displayed an IC50 in data set [2] of 9800 nM. The Drug uptake entry in data set [3] is listed as “Active”. In addition, the Activity result was “Not Active” in data set [4] and “Active” in data set [5].
Regarding `N[C@H]1CCN(C(=O)c2c(C(F)(F)F)oc3c(O)c4c(c(O)c23)C(=O)c2ccccc2C4=O)C1`, the IC50 in [2] turned out to be 2200 nM; in the data set with L1210, 1700 nM; with HCT-116 [8] it was 5300 nM; in the data set on HeLa, 4400 nM; with HCT-116 [10], 4600 nM; in the data set on K562 [11] it was 3600 nM. This compound yielded an IC50 with CCRF-CEM of 4000 nM. The result in the data set filed under Homo sapiens [6] and in the data set on K562 [7] was Active. For the same compound, in data set [3], the Drug uptake entry is “Active”. Besides, the “Ratio IC50” value came to 0.6 in data set [9] and 0.9 in data set [13]. Moreover, in data set [12], the inhibition result was “inactive”. In data set [5], the Activity result was “Not Active”.
As for `O=C1c2ccccc2C(=O)c2c1c(O)c1occ(C(=O)NC3CCCNC3)c1c2O` (racemic), the IC50 in data set [2] came to 1200 nM; in the data set on L1210, 700 nM; in the data set with HCT-116 [8], 600 nM; in the data set on HeLa, 700 nM; in the data set with HCT-116 [10], 800 nM; in the data set on K562 [11] it was 600 nM. Also, inhibition in the data set on CCRF-CEM was half-maximal at 900 nM (IC50). The result in the data set on MKN-45 [14], with TMK-1 [15], in the data set listed under Homo sapiens [17] and in the data set on K562 [20] was Active. Moreover, in [16], the inhibition result is “Active”. Moreover, in data set [3], the Drug uptake result is on record as “Active”. In addition, the Activity result with Lymphocyte is “Non-Toxic”; in data set [18], over 70%; in the data set with TMK-1 [19], 60 - 90%; in the data set on TMK-1 [21] it was “Dose-dependent effect”; in the data set on MKN-45 [22], 60 - 90%; in the data set on MKN-45 [23] it was “Dose-dependent effect”. In addition, the Activity entry in [5] was “Not Active”; in the data set with K562 [24], over 70%. Moreover, the results for the “Ratio IC50” value in data set [9] and in data set [13] were 2.1 and 1.3, respectively.
